# Counter-ions that a name gives are not always drawn.
# Experiments:
# HT29/DX cells = test: Cell viability (neutral red); format: cell-based, human; conditions: HT29/DX cells; compound alone, 5 nM
# A549 cells = test: Cell viability (neutral red); format: cell-based, human; conditions: A549 cells; compound alone, 5 nM
# A549/DX cells = test: Cell viability (neutral red); format: cell-based, human; conditions: A549/DX cells; compound alone, 5 nM
# T74D cells = test: Cell viability (neutral red); format: cell-based, human; conditions: T74D cells; compound alone, 5 nM
# MDA-MB-231 cells = test: Cell viability (neutral red); format: cell-based, human; conditions: MDA-MB-231 cells; compound alone, 5 nM
# TUBO cells = test: Cell viability (neutral red); format: cell-based, murine; conditions: TUBO cells; compound alone, 5 nM
# JC cells [1] = test: Cell viability (neutral red); format: cell-based, murine; conditions: JC cells; compound alone, 5 nM
# U2OS/DX cells = test: Cell viability (neutral red); format: cell-based, human; conditions: U2OS/DX cells; compound alone, 5 nM
# SaOS/DX cells = test: Cell viability (neutral red); format: cell-based, human; conditions: SaOS/DX cells; compound alone, 5 nM
# [2] = tested on: CCD-Co-18 cells, BEAS-2B cells, MCF10A cells, fibroblasts; test: Cell viability (neutral red) of not-transformed cells; format: cell-based, human; conditions: 5 nM, 72 h; no detectable CAXII
# Source text: Supplementary Figure S4: Effects of compounds 1, 2 and 4 on not-transformed cells. (A) Not-transformed human epithelial colon CCD-Co-18 cells, epithelial lung BEAS-2B cells, epithelial breast MCF10A cells, fibroblasts (fibro) were lysed and immunoblotted for CAXII and CAIX. A549/DX cells were used as control of CAXII- and CAIX-positive cells. β-tubulin level was used as control of equal protein loading. The figure is representative of one out of three experiments with similar results. (B) Cells were grown for 72 h in fresh medium (–), or in medium containing 5 nM compounds 1, 2 and 4, then stained with neutral red dye. The absorbance of viable cells was measured spectrophotometrically. Data are presented as means ± SD (n = 4).
# Pgp = Pgp ATPase activity on Pgp-rich vesicles; format: cell-based; conditions: for reduction of Pgp ATPase activity: cells grown 24 h with 5 nM compound
# Method: Pancadherin level was used as control of equal protein loading. no Ab: A549/DX sample immunoprecipitated without antibody. […] Data are presented as means ± SD (n = 3).
# The assay was performed on Pgp-enriched membrane vesicles as detailed in [39]. Verapamil (10 μM) was added to the reaction mix to achieve a maximal activation of the Pgp ATPase activity. Results were expressed as nmol hydrolyzed phosphate (Pi)/min/mg proteins, according to the titration curve previously prepared.
# Plasma stability (mouse) = format: in vitro ADME; conditions: read-out: mouse plasma stability t1/2 (converted)
# Method: (§1) Plasma stability (mouse) and liver microsome metabolic stability (mouse) were measured by the Biopharmacy Laboratory, Shanghai Institute of Materia Medica, Chinese Academy of Sciences.
# [3] = Liver microsome metabolic stability (mouse); format: in vitro ADME; conditions: mouse liver microsomes; read-out: mouse liver microsome stability t1/2
# Method: as §1
# [4] = Hematochemical parameters of tumor-bearing animals
# [5] = tested on: ca12 KO HT29/DX, A549/DX, MDA-MB-231 and U2OS/DX cells; test: Intracellular doxorubicin accumulation in ca12 knocked-out cells; format: cell-based, human
# Method: Data are presented as means ± SD (n = 4). […] The absorbance of viable cells was measured spectrophotometrically. Data are presented as means ± SD (n = 4).
# Doxorubicin content was measured fluorimetrically as detailed previously by us. […] Cells were washed twice with PBS, detached with trypsin and sonicated. The intracellular drug content was measured by liquid scintillation. The results were expressed as nmol drug/mg cell proteins, according to titration curves previously set.
# 5 × 10^5 cells were transduced with 1 μg RNA vector (CRISPR pCas guide vector) ca12 or 1 μg not-targeting vector, mixed with 1 μg donor DNA vector (Origene, Rockville, MD), following the manufacturer's instructions. Stable KO cells were selected in complete medium containing 1 μg/ml puromycin for three weeks. Knockout efficacy was evaluated by immunoblotting, as reported above.
# JC cells [6] = test: In vivo tumor growth, JC breast tumor model; conditions: for reduction in tumor volume at day 18: co-administered with 5 mg/kg doxorubicin i.v.
# Method: Data are presented as means ± SD.
# Tumor growth was measured daily by caliper and calculated according to the equation (L × W^2)/2, where L = tumor length, W = tumor width.
# human CA IX = target: human CA IX; parameters: method as in PMID 21851094, PMID 19827837, PMID 21314129; conditions: recombinant CA, errors ± 5%, three determinations; cited from earlier work
# human CA I = target: human CA I; parameters: method as in PMID 21851094, PMID 19827837, PMID 21314129; conditions: recombinant CA, errors ± 5%, three determinations; cited from earlier work
# human CA II = target: human CA II; parameters: method as in PMID 21851094, PMID 19827837, PMID 21314129; conditions: recombinant CA, errors ± 5%, three determinations; cited from earlier work
# human CA XII [7] = target: human CA XII; parameters: method as in PMID 21851094, PMID 19827837, PMID 21314129; conditions: recombinant CA, errors ± 5%, three determinations; cited from earlier work
# human CA XII [8] = test: CA inhibition, stopped-flow CO2 hydration; format: biochemical; conditions: ratio of Kis
# Method: Saturated CO2 solutions in water at 20°C were used as substrate, while the recombinant CA protein was prepared in Hepes buffer (10 mM, pH 7.5) with added NaClO4 (0.1 M) to maintain a constant the ionic strength. […] The inhibition constants were obtained by nonlinear least-squares methods using PRISM 3. The curve fitting algorithm allowed us to obtain the IC50 values, from which Ki values were calculated by using the Cheng-Prusoff equation.
# [9] = tested on: drug-sensitive and drug-resistant cancer cells; test: Cell viability (neutral red), whole panel of cancer cell lines; conditions: read-out: IC50 of tariquidar alone
# [10] = C1 19 ng/kg intratumorally alone
# [11] = C1 1900 ng/kg intratumorally alone
# [12] = dox 5 mg/kg i.v. + C1 19 ng/kg intratumorally
# [13] = dox 5 mg/kg i.v. + C1 1900 ng/kg intratumorally
smiles,measurement,setting,value
NS(=O)(=O)OCCCNS(=O)(=O)[C@@H]1O[C@H](CO)[C@@H](O)[C@H](O)[C@H]1O [Compound 1],reduction in viability for individual compounds,HT29/DX cells,≤ 31 ± 6%
same,reduction in viability for individual compounds,A549 cells,≤ 28 ± 10%
same,reduction in viability for individual compounds,A549/DX cells,≤ 38 ± 7%
same,reduction in viability for individual compounds,T74D cells,≤ 33 ± 12%
same,reduction in viability for individual compounds,MDA-MB-231 cells,≤ 36 ± 11%
same,reduction in viability for individual compounds,TUBO cells,≤ 28 ± 7%
same,reduction in viability for individual compounds,JC cells [1],≤ 30 ± 10%
same,reduction in viability for individual compounds,U2OS/DX cells,≤ 27 ± 8%
same,reduction in viability for individual compounds,SaOS/DX cells,≤ 32 ± 7%
same,cytotoxic effect in not-transformed cells,[2],did not exert any cytotoxic effect
same,reduction of Pgp ATPase activity,Pgp,≥ 1.47 fold
same,half-life,Plasma stability (mouse),42 min
same,half-life,[3],135 min
same,ALT,[4]; [10],38 ± 12 U/l
same,AP,[4]; [10],91 ± 13 U/l
same,AST,[4]; [10],239 ± 72 U/l
same,CPK,[4]; [10],271 ± 84 U/l
same,Creatinine,[4]; [10],0.021 ± 0.011 mg/L
same,LDH,[4]; [10],6723 ± 1023 U/l
same,ALT,[4]; [11],45 ± 7 U/l
same,AP,[4]; [11],83 ± 11 U/l
same,AST,[4]; [11],261 ± 71 U/l
same,CPK,[4]; [11],312 ± 81 U/l
same,Creatinine,[4]; [11],0.033 ± 0.008 mg/L
same,LDH,[4]; [11],6729 ± 835 U/l
same,ALT,[4]; [12],44 ±11 U/l
same,AP,[4]; [12],79 ± 11 U/l
same,AST,[4]; [12],221 ± 71 U/l
same,CPK,[4]; [12],701 ± 129 U/l
same,Creatinine,[4]; [12],0.029 ± 0.011 mg/L
same,LDH,[4]; [12],6091 ± 836 U/l
same,ALT,[4]; [13],33 ± 15 U/l
same,AP,[4]; [13],83 ± 19 U/l
same,AST,[4]; [13],182 ± 44 U/l
same,CPK,[4]; [13],691 ± 103 U/l
same,Creatinine,[4]; [13],0.028 ± 0.008 mg/L
same,LDH,[4]; [13],6241 ± 936 U/l
same,effect on doxorubicin intracellular accumulation,[5],lost the ability to further increase the doxorubicin intracellular accumulation
same,reduction in tumor volume at day 18,JC cells [6]; 19 ng/kg intratumorally,21%
same,reduction in tumor volume at day 18,JC cells [6]; 1900 ng/kg intratumorally,47%
same,effect on tumor growth when used alone,"JC cells [6]; 19 and 1900 ng/kg intratumorally, alone",no effect on tumor growth
NS(=O)(=O)OC[C@H]1OC(O)[C@H](O)[C@@H](O)[C@@H]1O (stereo partly drawn) [Compound 2],reduction in viability for individual compounds,HT29/DX cells,≤ 31 ± 6%
same,reduction in viability for individual compounds,A549 cells,≤ 28 ± 10%
same,reduction in viability for individual compounds,A549/DX cells,≤ 38 ± 7%
same,reduction in viability for individual compounds,T74D cells,≤ 33 ± 12%
same,reduction in viability for individual compounds,MDA-MB-231 cells,≤ 36 ± 11%
same,reduction in viability for individual compounds,TUBO cells,≤ 28 ± 7%
same,reduction in viability for individual compounds,JC cells [1],≤ 30 ± 10%
same,reduction in viability for individual compounds,U2OS/DX cells,≤ 27 ± 8%
same,reduction in viability for individual compounds,SaOS/DX cells,≤ 32 ± 7%
same,cytotoxic effect in not-transformed cells,[2],did not exert any cytotoxic effect
same,reduction of Pgp ATPase activity,Pgp,≥ 1.47 fold
same,effect on doxorubicin intracellular accumulation,[5],lost the ability to further increase the doxorubicin intracellular accumulation
same,Ki,human CA IX,8.6 nM
CCC(=O)OC1O[C@H](COS(N)(=O)=O)[C@@H](OC(=O)CC)[C@H](OC(=O)CC)[C@H]1OC(=O)CC (stereo partly drawn) [Compound 3],Ki,human CA IX,77 nM
NS(=O)(=O)OC[C@H]1OC(O)[C@H](O)[C@@H](O)[C@H]1O (stereo partly drawn) [Compound 4],reduction in viability for individual compounds,HT29/DX cells,≤ 31 ± 6%
same,reduction in viability for individual compounds,A549 cells,≤ 28 ± 10%
same,reduction in viability for individual compounds,A549/DX cells,≤ 38 ± 7%
same,reduction in viability for individual compounds,T74D cells,≤ 33 ± 12%
same,reduction in viability for individual compounds,MDA-MB-231 cells,≤ 36 ± 11%
same,reduction in viability for individual compounds,TUBO cells,≤ 28 ± 7%
same,reduction in viability for individual compounds,JC cells [1],≤ 30 ± 10%
same,reduction in viability for individual compounds,U2OS/DX cells,≤ 27 ± 8%
same,reduction in viability for individual compounds,SaOS/DX cells,≤ 32 ± 7%
same,cytotoxic effect in not-transformed cells,[2],did not exert any cytotoxic effect
same,reduction of Pgp ATPase activity,Pgp,≥ 1.47 fold
same,effect on doxorubicin intracellular accumulation,[5],lost the ability to further increase the doxorubicin intracellular accumulation
same,Ki,human CA IX,62 nM
NS(=O)(=O)c1ccc(CNS(=O)(=O)[C@@H]2O[C@H](CO)[C@@H](O)[C@H](O)[C@H]2O)cc1 [Compound 5],Ki,human CA I,102 nM
same,Ki,human CA II,9.1 nM
same,Ki,human CA XII [7],8.3 nM
NS(=O)(=O)c1ccc(CNS(=O)(=O)[C@@H]2O[C@H](CO)[C@H](O)[C@H](O)[C@H]2O)cc1 [Compound 6],Ki,human CA I,87 nM
same,Ki,human CA II,7.8 nM
same,Ki,human CA XII [7],8.7 nM
NS(=O)(=O)c1ccc(CNS(=O)(=O)[C@@H]2O[C@H](CO)[C@@H](O[C@H]3O[C@H](CO)[C@H](O)[C@H](O)[C@H]3O)[C@H](O)[C@H]2O)cc1 [Compound 7],CAXII Isozyme Selectivity CA I/XII,human CA XII [8],12.0
same,CAXII Isozyme Selectivity CA IX/XII,human CA XII [8],11.9
same,CAXII Isozyme Selectivity CAII/ XII,human CA XII [8],0.6
same,Ki,human CA I,107 nM
same,Ki,human CA II,5 nM
same,Ki,human CA IX,106 nM
same,Ki,human CA XII [7],8.9 nM
NS(=O)(=O)c1ccc(CNS(=O)(=O)[C@@H]2O[C@H](CO)[C@@H](O[C@H]3O[C@H](CO)[C@@H](O)[C@H](O)[C@H]3O)[C@H](O)[C@H]2O)cc1 [Compound 8],CAXII Isozyme Selectivity CA I/XII,human CA XII [8],12.3
same,CAXII Isozyme Selectivity CA IX/XII,human CA XII [8],12.0
same,CAXII Isozyme Selectivity CAII/ XII,human CA XII [8],0.6
same,Ki,human CA I,101 nM
same,Ki,human CA II,4.8 nM
same,Ki,human CA IX,98 nM
same,Ki,human CA XII [7],8.2 nM
"COc1cc2c(cc1OC)CN(CCc1ccc(NC(=O)c3cc(OC)c(OC)cc3NC(=O)c3cnc4ccccc4c3)cc1)CC2 [tariquidar, Tariquidar dihydrochloride, reference compound]",effect on Pgp ATPase activity,Pgp; tariquidar 25 nM added during the assay,strongly decreased ATPase activity
same,IC50,[9],> 10 µM
